Cc1ccc(-c2ccccc2C#N)cc1
solubility (mole fraction)
Details | 268.05 K | 272.97 K | 278.05 K | 283.15 K | 288.15 K | 293.15 K | 298.13 K | 303.05 K
in ethanol | 0.0142 | 0.0159 | 0.0168 | 0.0205 | 0.0284 | 0.041 | 0.0604 | 0.0958
in ethyl acetate | 0.163 | 0.196 | 0.237 | 0.284 | 0.341 | 0.412 | 0.482 | 0.569
